The results in this text go back to ChEMBL document CHEMBL3881531, “ANT2 inhibitor compounds and methods of use thereof” (2009).

Structures are written as SMILES.

Data set [1] in a line: Cytotoxicity against mouse NIH/3T3 cells assessed as cell survival at 50 uM incubated for 5 days by crystal violet staining based assay. More on the design: species or system NIH3T3. The following applies: read-out: Survival.
Data set [2] addresses T1, ADP/ATP translocase 2 (Homo sapiens) (UniProt P05141).
T1 sequence (whole entry): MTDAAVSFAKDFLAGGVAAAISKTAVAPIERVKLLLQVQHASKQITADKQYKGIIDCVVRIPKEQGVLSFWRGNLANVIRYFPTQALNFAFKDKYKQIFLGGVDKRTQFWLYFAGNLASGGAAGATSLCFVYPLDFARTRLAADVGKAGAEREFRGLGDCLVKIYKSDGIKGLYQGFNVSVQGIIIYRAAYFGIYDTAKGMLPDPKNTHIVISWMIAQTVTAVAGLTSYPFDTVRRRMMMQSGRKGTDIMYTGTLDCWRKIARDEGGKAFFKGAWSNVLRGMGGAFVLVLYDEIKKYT
The data set is described as follows: Inhibition of ANT2 in human HeLa cells assessed as growth inhibition at 50 uM incubated for 5 days by crystal violet staining based assay. Format: cell-based.

The target in data set [3] is T1, ADP/ATP translocase 2 (Homo sapiens). The data set can be described thus: Inhibition of ANT2 in human HeLa cells assessed as cell survival at 50 uM incubated for 5 days by crystal violet staining based assay.

Consider `CC(C)CC(=O)C1C(=O)c2ccccc2C1=O`, for which, in data set [1], the viability at 120 h, 50 µM amounted to 40%. The growth inhibition (GI) in data set [2] is 79%. The Survival in data set [3] was 5%.
For `O=C(CC(=O)C1C(=O)c2ccccc2C1=O)c1ccccc1`, the growth inhibition (GI) in data set [2] was determined as 84%.
